Results on 1 compound are retold here after EPA's ToxValDB 9.5 (doi:10.2903/j.efsa.2005.34ar).

In brackets after ≈: the same amount, converted by molar mass.

As a reminder, the NOAEL is the highest dose or exposure tested at which no adverse effect was seen.

One data set concerns Canidae. The conditions noted are these: chronic; duration: 1 years; oral; Dog Other; clinical signs.
The next data set has as its system Daphnia magna. The conditions noted are these: chronic/long-term; duration: 21 days; reproduction.
The test system of a further data set is Apis mellifera. The conditions noted are these: acute, mortality.
In the next data set the test system is Oncorhynchus mykiss. As to conditions: chronic/long-term; duration: 21 days.
A further data set deals with Lepomis macrochirus. As to conditions: acute; duration: 96 hours; mortality.
The next data set relates to Tagia sp. As to conditions: acute; mortality.
In a further data set the test system is Aphidius rhopalosiphi. Nature of the data set: LR50; higher = less toxic. The conditions noted are these: not reported; duration: 14 days; mortality.
A further data set has as its system Typhlodromus pyri. Nature of the data set: LR50; higher = less toxic. As to conditions: acute; duration: 14 days; mortality.

Turning to `C#CCOC(=O)[C@@H](C)Oc1ccc(Oc2ncc(Cl)cc2F)cc1` [Clodinafop-propargyl], the LC50 with Colinus virginianus (acute, oral, diet, mortality) was over 980 mg/kg-day; in the data set with Lepomis macrochirus it was 0.21 µg/mL (≈ 0.6 µM); in the data set with Tagia sp., 197 mg/kg. The LD50 is 1360 mg/kg with Colinus virginianus (acute, oral, mortality); 1390 mg/kg in the data set on Rattus norvegicus (acute, oral, M, mortality); 40.9 µg/piece in the data set with Apis mellifera (dermal); over 93.7 µg/piece in the data set on Apis mellifera (duration: 48 hours, oral, unspecified). The NOEC in the data set on Colinus virginianus (reproduction developmental) turned out to be 43 mg/kg-day; with Daphnia magna, 0.23 mg/L; with Oncorhynchus mykiss, 0.1 mg/L. The no observed adverse effect level (NOAEL) in the data set on Canidae worked out at 3.4 mg/kg-day; in the data set on Rattus norvegicus (chronic, duration: 2 years, oral, clinical signs) it was 0.32 mg/kg-day; in the data set with Rattus norvegicus (developmental, development), 5 mg/kg-day; in the data set on Rattus norvegicus (reproduction developmental, reproduction), 4.63 mg/kg-day. The LR50 is 3.1 g/ha with Aphidius rhopalosiphi and 20 g/ha in the data set on Typhlodromus pyri.
